SMILES strings stand for the structures.

Experiment [1] relates to MPTP-lesioned marmosets. As to the kind of experiment: Rating of parkinsonian disability, dyskinesia and psychosis in MPTP-lesioned marmosets. It is filed as in vivo, common marmosets (Callithrix jacchus). The method, then:
(§1) Six common marmosets (Callithrix jacchus; female; weight, 350-500 g (Harlan, Madison, Wis., USA)) were kept under conditions of controlled temperature (25±2° C.) and a 12-hour light/dark cycle (lights on 6:30 a.m.). Animals were group housed and had access to food, fresh-fruit supplements and water ad libitum and their home cage environment was enriched with primate toys, perches and auditory stimuli. Prior to start of studies, animals were acclimatized to handling, blood collection and administration of treatments (oral syringe feeding and subcutaneous injection) as well as transfer to observation cages for assessment of behavior. A parkinsonian syndrome was induced by once-daily subcutaneous administration of MPTP hydrochloride (Sigma, Canada; 2 mg/kg base concentration in 0.9% saline) for 5 consecutive days. Following this, animals were allowed to recover for 12 weeks to allow parkinsonian symptoms to develop and stabilize. […] Treatment-related complications including dyskinesia and psychosis-like behaviors were evoked by twice-daily treatment with L-DOPA p.o. (as Prolopa®, Roche Canada, Ontario, equivalent to 15 mg/kg L-DOPA and 3.5 mg/kg benserazide) for a minimum of 30 days. […] Disord. 21:839-846; Visanji et al. (2008) Mov. Disord. 23:1922-1925; Visanji et al (2009) Neurobiol Dis. 35: 184-192]. After this time, the animals were used in several studies to evaluate potential anti-parkinsonian and anti-dyskinetic agents. A minimum period of two weeks was allowed between completing any prior study and commencing this study, a period in excess of ten half-lives since administration of any previously employed experimental drug. Throughout the course of the study, on days not requiring plasma sampling or behavioral observations, animals were treated once daily with oral L-DOPA therapy, given at 10:00 a.m. to maintain stable levels of complications. Marmosets treated with MPTP as described in this example are referred to as MPTP-lesioned marmosets.
(§2) To assess the effect of treatment on plasma FAAH substrate level, total activity, high activity time and count, data were analyzed using a parametric repeated-measures (RM) 1-way analysis of variance (ANOVA) followed by a Student Newman-Keuls Multiple Comparison post hoc test. To assess the effect of treatment on plasma L-DOPA level a paired, two-tailed t-test was used. All FAAH (AEA, OEA, PEA) subbstrate and L-DOPA plasma level data and activity data are presented as the group mean and SEM For measures of parkinsonian disability, dyskinesia and psychosis, data were analyzed via Friedman's test with Dunn's Multiple Comparison post hoc test. […] In all cases, p<0.05 was taken to represent a significant difference.
(§3) MPTP hydrochloride (Sigma, Canada) was dissolved in 0.9% NaCl sterile solution to a concentration of 0.2 mg/ml (freebase) and administered at 1 ml/kg. Maintenance L-DOPA, administered as Prolopa® capsules (Roche, Mississauga, ON, Canada) containing 50 mg L-DOPA and 12.5 mg benserazide (freebase) was dissolved in Gatorade sports beverage (The Gatorade Company, Chicago, Ill.) prior to oral administration by syringe at a volume of 10 ml/kg. On days of behavioral assessment, L-DOPA (20 mg/kg, freebase) was prepared from the methyl ester form (Sigma, Canada) in combination with benserazide hydrochloride (5 mg/kg, freebase, Sigma, Canada) dissolved in 0.9% sterile saline containing 0.1% ascorbate (Sigma, Canada) and 0.05% absolute ethanol. URB597 (Cayman Chemical, Ann Arbor, Mich.) was formulated in a vehicle containing 50% corn oil (Professional Compounding Centers of America (PCCA), Houston, Tex.) and 50% nutritional drink Ensure™ (Abbott Nutrition, Chicago, Ill.) to make the suspension palatable for marmoset oral dosing. Requisite amounts of URB597 were weighed into sterile 50 ml polypropylene tubes (for the 3, 10, 30 and 60 mg/kg doses, 12, 40, 120 and 240 mg were weighed respectively). Then, 10 ml Corn oil was added and mixed until homogenous.

For experiment [2], the system named is MPTP-lesioned marmosets. As to the kind of experiment: Motor activity (passive infra-red sensors: total activity, high activity counts and time) in MPTP-lesioned marmosets. It is filed as in vivo, common marmosets (Callithrix jacchus). The method, then:
as §1, §2, §3

A further experiment concerns MPTP-lesioned macaques. The experiment in a line: Motor activity (total activity, high activity time and counts) in MPTP-lesioned macaques treated with URB597 and L-DOPA. Type of experiment: in vivo, cynomolgus monkeys (Macaca fascicularis).
Where [3] appears, read: URB597 10 mg/kg p.o. + L-DOPA 20 mg/kg s.c., 2-4 h, p>0.05 cf. L-DOPA alone.
[4] abbreviates: URB597 10 mg/kg p.o. given alone (vehicle s.c.), p>0.05.
Setting [5] is: URB597 10 mg/kg p.o. + L-DOPA 20 mg/kg s.c., 2-4 h, p<0.05.
[6] abbreviates: URB597 10 mg/kg p.o. + L-DOPA 20 mg/kg s.c., 2-4 h, p>0.05.

Take `NC(=O)c1cccc(-c2cccc(OC(=O)NC3CCCCC3)c2)c1` [URB597]: the level of psychosis result in the experiment with MPTP-lesioned marmosets [1] (URB597 10 mg/kg p.o. + L-DOPA 20 mg/kg s.c., 2-4 h) is on record as “mild to moderate”. In addition, in the experiment on MPTP-lesioned marmosets [1] (setting [3]), the “effect of URB597 on L-DOPA-induced dyskinesia” value is “did not modify”, the “effect of URB597 on L-DOPA-induced psychosis” value is “did not modify” and the “effect of URB597 on anti-parkinsonian actions of L-DOPA” value is recorded as “did not modify”. Also, in the experiment on MPTP-lesioned marmosets [1] (URB597 10 mg/kg p.o. + L-DOPA 20 mg/kg s.c., summed 2-4 h, IQR 13-29, n=6), the “dyskinesia score (median)” value is listed as 18. The “parkinsonian disability score (median)” value with MPTP-lesioned marmosets [1] (URB597 10 mg/kg p.o. + L-DOPA 20 mg/kg s.c., summed 2-4 h, maximum 432, IQR 65-114, n=6) came to 78. The “effect on parkinsonian disability, dyskinesia or psychosis cf. vehicle” value with MPTP-lesioned marmosets [1] (setting [4]) was “did not modify”. In the experiment on MPTP-lesioned marmosets [2] (setting [5]), the “reduction of L-DOPA-induced total activity compared to L-DOPA alone” value was determined as 32%, the “reduction of high activity counts evoked by L-DOPA” value was found to be 52% and the “reduction of high activity time evoked by L-DOPA” value was 48%. Besides, in the experiment on MPTP-lesioned marmosets [2] (setting [6]), the “high activity counts and high activity time compared to normal, unlesioned animals” value was “not significantly different”; the “total activity relative to normal, un-lesioned animals” value is 119 % of normal. In the experiment with MPTP-lesioned marmosets [2] (URB597 10 mg/kg p.o. + L-DOPA 20 mg/kg s.c., 6 h time course), the “time after which total activity counts were no longer significantly different compared to vehicle (s.c.)-treated animals” value was determined as 2.5 h. Also, in the experiment on MPTP-lesioned marmosets [2] (setting [4]), the “effect on total activity and high activity cf. vehicle” value is listed as “did not modify”. Also, the total activity counts in the experiment with MPTP-lesioned marmosets [2] (URB597 10 mg/kg p.o. in combination with L-DOPA 20 mg/kg s.c., 2-4 h, mean±SEM, n=6) stood at 1879±332 counts. In the experiment with MPTP-lesioned macaques (L-DOPA/URB597 (0.1 ml/kg as printed, i.v.), between 2 and 3 h after L-DOPA), the “total activity counts, high activity time and high activity counts compared to normal macaques” value was “significantly higher”. In the experiment on MPTP-lesioned macaques (URB597 0.3 mg/ml (so in the source) i.v. + L-DOPA p.o., 2-3 h post L-DOPA, p<0.05), the “total activity and high activity count compared to L-DOPA alone treatment” value is given as “significantly lower”.

The values above are taken from patent US20130150346A1, “Use of FAAH Inhibitors for Treating Parkinson's Disease and Restless Legs Syndrome” (Ironwood Pharmaceutical, Inc., priority 2010, published 2013).
